Tests used:
[1] = Half-life of model acyl hydrazones in a simulated lysosomal environment (pH 4.5); assay type: physicochemical; settings: read-out: Acidic (pH 4.5) Half life
Source text: Towards the goal developing enhanced control of ADC linker stability, several model cyclic acyl hydrazones whose lability is modulated either by steric or stereoelectronic effects have been prepared. Exemplary acyl hydrazones containing a substituted phenyl group adjacent to the imine carbon have been synthesized. Starting with the acyl hydrazone structure (D) present in Mylotarg, the adjacent steric and electronic environments in model linker compounds were varied and their half-life tested in a simulated lysosomal environment (pH 4.5), as shown in Table 1. […] On the other hand, incorporation of a methoxy group in the same position (as in G) rendered the cyclic hydrazone very labile with a half-life of only 2 min.

[2] = test system: parental U87MG glioblastoma human tumor cell line; assay: Cell proliferation assay (SRB), U87 parental cells; assay type: cell-based; settings: U-87 MG, 72 h
Procedure: (§1) The parental U87MG glioblastoma human tumor cell line (ATCC) and the corresponding cell line engineered to overexpress wt EGFR (EGFR^+ U87) (˜2M receptors per cell) were grown in DMEM medium containing 10% fetal bovine serum and 2 mM L-glutamine. Cells were inoculated into 96 well microtiter plates in 100 μL at a plating density of 4000 cells/well After cell inoculation, the microtiter plates were incubated at 37° C., 5% CO2, 95% air and 100% relative humidity. After 24 h incubation, experimental drugs were diluted to 10× the desired final maximum test concentration with complete medium and additional 10-fold or ½ log serial dilutions were made to provide a total of 6 drug concentrations plus control. Aliquots of 10 μl of these different drug dilutions were added to the appropriate microtiter wells already containing 100 μl of medium, resulting in the required final drug concentrations.
(§2) Following drug addition, the plates were incubated for an additional 72 h at 37° C., 5% CO2, 95% air, and 100% relative humidity. […] Bound stain was subsequently solubilized with 10 mM trizma base, and the absorbance was read on an automated plate reader at a wavelength of 515 nm. The growth was calculated at each of the drug concentrations levels relative to untreated cells (media only control).
(§3) Percentage growth inhibition was calculated as: [(Ti)/(C)]×100 […]

[3] = test system: glioblastoma EGFR^+ U87 cell lines (U87MG engineered to overexpress wt EGFR); assay: Cell proliferation assay (SRB), EGFR^+ U87 cells; assay type: cell-based; settings: Homo sapiens, U-87 MG, 72 h
Procedure: as §1, §2, §3

[4] = Stability of acyl hydrazones on incubation in human plasma; assay type: in vitro ADME; settings: 6 days incubation in human plasma; remaining parent acyl hydrazone
Procedure: In addition, for an ADC to have a better therapeutic window, ideally it should be stable in plasma and having the payload released only upon entry to the target cells. Thus targeted cytotoxicity would be mostly confined to the diseased cells of interest. Starting with the acyl hydrazone structure (D) present in Mylotarg, the adjacent steric and electronic environments were varied in model linker compounds and their stability was tested in plasma.

[5] = test system: SKOV3 ovarian cancer cell line; assay: Cytotoxicity against SKOV3 (CellTiter-Glo ATP viability); assay type: cell-based; settings: ATP content
Procedure: SKOV3 ovarian cells are incubated with the effectors for a period corresponding to 2 to 3 times their estimated doubling time and the amount of viable cells is determine by measuring ATP content in the wells. […] All ADCs are diluted in DPBS to 6× the highest concentration tested, followed by 10 3-fold serial dilutions in DPBS for a total of 11 concentration points. Each point is added to triplicate wells. DPBS is added in wells to measure the maximum growth. Cells are diluted at their appropriate seeding density (ranging from 150 to 1000 cells per well) in complete media supplemented with glutamine 2 mM, serum and antibiotic cocktail. They are distributed in white, opaque bottom, tissue-culture treated 384 well plates and incubated for 24 hrs at 37° C.+5% CO2. […] Total ATP is measured using CellTiter-Glo reagent from Promega as recommended by the supplier. […] Signal output is measured on a luminescence plate reader (envision, Perkin Elmer) set at an integration time of 0.1 sec. […]
Each concentration point (S) is normalized to the negative control wells (NC) and expressed as % survival (NC−S/NC×100). Potency (IC50) and efficacy are calculated from a non-linear curve fit of the points versus log of the concentrations without constrain on the slope. Refined data are analysed using Prism software.

Row | Compound | half-life [1] | other results
1 | C/C(=N\NC(=O)CC(C)(C)S)c1ccc(OCCCC(=O)O)cc1 [Compound Ia, 4-(4-(1-(2-(3-Mercaptomethylbutanoyl) hydrazineylidene)ethyl)phenoxy) butanoic acid] | 15 min | 
2 | CC(C)(S)CC(=O)NN=C1CCCc2cc(OCCCC(=O)O)cc(O)c21 [Compound Ib, 4-((4-Hydroxy-5-(2-(3-mercapto-3-methylbutanoyl)hydrazono)-5,6,7,8-tetrahydronaphthalen-2-yl)oxy)butanoic acid] | 234 min | 
3 | CC(C)(S)CC(=O)N/N=C1\CCCc2cc(OCCCC(=O)O)ccc21 [Compound Ie, 4-((5-(2-(3-Mercapto-3-methylbutanoyl)hydrazineylidene)-5,6,7,8-tetrahydronaphthalen-2-yl)oxy)butanoic acid] | 31 min | 
4 | COc1cc2cc(c1Cl)N(C)C(=O)C[C@H](OC(=O)[C@H](C)N(C)C(=O)CCS)[C@]1(C)O[C@H]1[C@H](C)[C@@H]1C[C@@](O)(NC(=O)O1)[C@H](OC)/C=C/C=C(\C)C2 [DM1] |  | IC50 [2]: 12.3 nM; IC50 [3]: 10.3 nM
5 | COc1ccc(/C(C)=N/NC(C)=O)cc1 [D] | 15 min | % remaining after 6 days [4]: 37%
6 | COc1cc(O)cc2c1/C(=N/NC(C)=O)CCC2 [G] | 2 min | 
7 | CC(=O)N/N=C1\CCCc2ccc(F)cc21 [K] | 88 min | 
8 | CC(=O)N/N=C1\CCc2cccc(O)c21 [L] | 185 min | % remaining after 6 days [4]: 50%
9 | Synagis-SMCC-DM1: negative control ADC |  | IC50 [5]: 9.64 nM
